Assay results: patent US9636299B2, “Method for treating diabetic retinopathy” (XAVIER UNIVERSITY OF LOUISIANA, priority 2012, dated 2017)
Residues, ends and D or L forms follow the SMILES beside them.

Legend:
Type in all cases: in vivo, mouse
VEGF = test: Streptozotocin-induced diabetic mice, retinal VEGF protein by Western blot; conditions: 14 days
Method: (§1) Streptozotocin (STZ) induced diabetes. Twelve week old C57Bl/6 mice were used for this study. Mice were induced to have diabetes by intraperitoneal injection of 170 μg/g of streptozotocin (Sigma Aldrich, St. Louis, Mo.). Controls were injected with a vehicle (0.01M sodium citrate buffer). On the third day after STZ treatment, mice tail veins were bled to test the hyperglycemic status using blood sugar detection kit (Lifescan; Johnson & Johnson, Milpitas, Calif.). Mice with blood sugar levels of >300 mg/dL on the third day after STZ treatment were considered diabetic. Eye drop treatment containing 1% apoEdp or vehicle PBS was continued 4 times a day for 14 consecutive days. Intra-peritoneal (i/p) injection containing 40 mg/kg of apoEdp or vehicle control PBS was administered once daily for 14 consecutive days. On the 15th day post-treatment, mice were euthanized, their eyes enucleated, and the retinas dissected out to use for mRNA or Western blot analysis.
Upregulation of VEGF expression is reported as one of the reasons for the loss of tight junction proteins in diabetic mice (20).
(§2) Increased vascular permeability in diabetic retinopathy (DR) is reported to result in a concomitant increase of VEGF. The VEGF pathway is known to play a role in breakdown of the BRB through a mechanism involving the down regulation of tight junction proteins in the retinal microvasculature (20).

LRP-1 = test: Streptozotocin-induced diabetic mice, retinal LRP-1 protein
Method: as §1

MMP9 = test: Laser photocoagulation-induced retinal injury in mice, MMP9 real-time RT-PCR; conditions: apoEdp 40 mg/kg intraperitoneally once each day for 7 days, vs mice without apoEdp
Method: Laser Photocoagulation-Induced Retinopathy. Female mice (C57BL/6J), aged 6-8 weeks, were used for retinal laser photocoagulation studies. The mice were treated and maintained in accordance with the ARVO Statement for the Use of Animals in Ophthalmic and Vision Research. The mice were anesthetized by intraperitoneal injection of a mixture of ketamine (100 mg/kg; Warner Lambert Co., Morris Plains, N.J.) and xylazine (10 mg/kg; Bayer AG, Leverkusen, Germany), and the pupils dilated with 2.5% tropicamide (Alcon, Fort Worth, Tex.). […]
RNA Extraction, Reverse Transcription, & PCR. […] Gene expression was measured at RNA level per 100 ng of total RNA using one-step RT-PCR kit (Bio-Rad, Hercules, Calif.). Four host genes (mouse GAPDH, mouse MMP2, mouse HPSE-1 (heparanase-1), and mouse MMP9) were analyzed to confirm relative quantitative expression levels. The primer pairs used were specifically designed and synthesized by Qiagen GmbH, Hilden, Germany (Quantitech Primer assay kit, for each host gene, catalog numbers QT01658692, QT00088396, QT00009555, and QT00040040, respectively). One-step Real-time quantitative RT-PCR reactions were performed in a 50-μL volume containing a solution of 1× supermix (iQ SYBR Green; Bio-Rad, Hercules, Calif.), 1 μM mix of forward and reverse primers, and 5 μL total RNA. […] Relative quantitative expression levels were determined for each gene. […]

HS = test: Streptozotocin-induced diabetic mice, loss of HS; conditions: either 14-day eye drop application or systemic i/p injection
Method: as §1, §2

occludin = test: Streptozotocin-induced diabetic mice, retinal occludin mRNA by real-time RT-PCR; conditions: 14 days, vs diabetic non-treated
Method: RNA Extraction, Reverse Transcription, & PCR. Following euthanasia, mouse eyes were enucleated and placed immediately into RNAlater® RNA stabilization reagent (Qiagen, Hilden, Germany). Intraocular fluids were aspirated and pooled, and total cellular RNA was isolated using an RNeasy® Mini Kit (Qiagen) according to the manufacturer's instructions. Gene expression was measured at RNA level per 100 ng of total RNA using one-step RT-PCR kit (Bio-Rad, Hercules, Calif.). Four host genes (mouse GAPDH, mouse MMP2, mouse HPSE-1 (heparanase-1), and mouse MMP9) were analyzed to confirm relative quantitative expression levels. The primer pairs used were specifically designed and synthesized by Qiagen GmbH, Hilden, Germany (Quantitech Primer assay kit, for each host gene, catalog numbers QT01658692, QT00088396, QT00009555, and QT00040040, respectively). One-step Real-time quantitative RT-PCR reactions were performed in a 50-μL volume containing a solution of 1× supermix (iQ SYBR Green; Bio-Rad, Hercules, Calif.), 1 μM mix of forward and reverse primers, and 5 μL total RNA. A four-step protocol was used: denaturation, 3 minutes at 95° C.; amplification and quantification, 40 cycles of 15 seconds at 95° C. followed by 30 seconds at 60° C.; melting curve, 60 to 95° C. with a heating rate of 0.5° C. per second; followed by cooling (MyiQ Single Color Real-Time PCR Detection System; Bio-Rad). […]

heparanase = test: Streptozotocin-induced diabetic mice, heparanase expression; conditions: either 14-day eye drop application or systemic i/p injection
Method: as §1, §2

SMILES: CC(=O)N[C@@H](CC(C)C)C(=O)N[C@@H](CCCNC(=N)N)C(=O)N[C@@H](CCCCN)C(=O)N[C@@H](CC(C)C)C(=O)N[C@@H](CCCNC(=N)N)C(=O)N[C@@H](CCCCN)C(=O)N[C@@H](CCCNC(=N)N)C(=O)N[C@@H](CC(C)C)C(=O)N[C@@H](CC(C)C)C(=O)N[C@@H](CC(C)C)C(=O)N[C@@H](CCCNC(=N)N)C(=O)N[C@@H](CCCCN)C(=O)N[C@@H](CC(C)C)C(=O)N[C@@H](CCCNC(=N)N)C(=O)N[C@@H](CCCCN)C(=O)N[C@@H](CCCNC(=N)N)C(=O)N[C@@H](CC(C)C)C(=O)N[C@@H](CC(C)C)C(N)=O [apoEdp, Ac-LRKLRKRLLLRKLRKRLL-amide] (Ac-LRKLRKRLLLRKLRKRLL-NH2)
- VEGF expression of retina (VEGF; eye drop treatment, vs untreated diabetic): not significantly different from untreated diabetic mice
- VEGF expression of retina (VEGF; i/p injection of apoEdp, vs diabetic untreated): significantly reduced VEGF expression
- Retinal LRP-1 protein levels (LRP-1; 1% apoEdp via eye drops): significant reduction
- Retinal LRP-1 protein levels (LRP-1; 1% apoEdp via intraperitoneal (i/p) injection): significant reduction
- Expression of MMP9 in retina (MMP9): dramatically reduced
- Loss of HS (HS): reversed
- Down-regulation of occludin-specific mRNA in retina (occludin; 1% apoEdp eye drop 4 times a day): significantly inhibited the down-regulation
- Down-regulation of occludin-specific mRNA in retina (occludin; i/p injection 40 mg/kg daily): significantly inhibited the down-regulation
- Increased expression of heparanase (heparanase): reversed increased expression of heparanase
